From patent US9790228B2, “Heterocyclic kinase inhibitors” (Intellikine LLC, priority 2008, dated 2017)

How the values were obtained:
p110γ = p110γ (Homo sapiens (Human), UniProt P48736); assay: PI3K γ inhibition assay (TLC lipid kinase or HTRF); type: biochemical
How it was run: (§1)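 IC50 from TLC lipid kinase assay (25 mM HEPES pH 7.4, 10 mM MgCl2, 100 μg/ml phosphatidylinositol, 10 or 100 μM γ-32P-ATP, 5 min RT, phosphorimager) at 10–12 two-fold dilutions, or HTRF (10 μM PIP2, 10 μM ATP, 1 h RT) measuring PIP3 by TR-FRET; 2% DMSO final.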

Balb/c splenic B cells = assay: B cell activation and proliferation assay (Alamar Blue); type: cell-based, mouse; settings: Mus musculus, B-cell
Method: The ability of one or more subject compounds to inhibit B cell activation and proliferation is determined according to standard procedures known in the art. For example, an in vitro cellular proliferation assay is established that measures the metabolic activity of live cells. The assay is performed in a 96 well microtiter plate using Alamar Blue reduction. Balb/c splenic B cells are purified over a Ficoll-Paque™ PLUS gradient followed by magnetic cell separation using a MACS B cell Isolation Kit (Miletenyi). Cells are plated in 90 ul at 50,000 cells/well in B Cell Media (RPMI+10% FBS+Penn/Strep+50 uM bME+5 mM HEPES). A compound disclosed herein is diluted in B Cell Media and added in a 10 ul volume. Plates are incubated for 30 min at 37 C and 5% CO2 (0.2% DMSO final concentration). A 50 ul B cell stimulation cocktail is then added containing either 10 ug/ml LPS or 5 ug/ml F(ab′)2 Donkey anti-mouse IgM plus 2 ng/ml recombinant mouse IL4 in B Cell Media. Plates are incubated for 72 hours at 37° C. and 5% CO2. A volume of 15 uL of Alamar Blue reagent is added to each well and plates are incubated for 5 hours at 37 C and 5% CO2. Alamar Blue fluoresce is read at 560Ex/590Em, and IC50 or EC50 values are calculated using GraphPad Prism 5.

p110β/p85α = p110β/p85α (Homo sapiens, UniProt P42338); assay: PI3K β inhibition assay (TLC lipid kinase or HTRF); type: biochemical; settings: read-out: PI3K β IC50
Chain of p110β/p85α (P42338 whole entry, looked up): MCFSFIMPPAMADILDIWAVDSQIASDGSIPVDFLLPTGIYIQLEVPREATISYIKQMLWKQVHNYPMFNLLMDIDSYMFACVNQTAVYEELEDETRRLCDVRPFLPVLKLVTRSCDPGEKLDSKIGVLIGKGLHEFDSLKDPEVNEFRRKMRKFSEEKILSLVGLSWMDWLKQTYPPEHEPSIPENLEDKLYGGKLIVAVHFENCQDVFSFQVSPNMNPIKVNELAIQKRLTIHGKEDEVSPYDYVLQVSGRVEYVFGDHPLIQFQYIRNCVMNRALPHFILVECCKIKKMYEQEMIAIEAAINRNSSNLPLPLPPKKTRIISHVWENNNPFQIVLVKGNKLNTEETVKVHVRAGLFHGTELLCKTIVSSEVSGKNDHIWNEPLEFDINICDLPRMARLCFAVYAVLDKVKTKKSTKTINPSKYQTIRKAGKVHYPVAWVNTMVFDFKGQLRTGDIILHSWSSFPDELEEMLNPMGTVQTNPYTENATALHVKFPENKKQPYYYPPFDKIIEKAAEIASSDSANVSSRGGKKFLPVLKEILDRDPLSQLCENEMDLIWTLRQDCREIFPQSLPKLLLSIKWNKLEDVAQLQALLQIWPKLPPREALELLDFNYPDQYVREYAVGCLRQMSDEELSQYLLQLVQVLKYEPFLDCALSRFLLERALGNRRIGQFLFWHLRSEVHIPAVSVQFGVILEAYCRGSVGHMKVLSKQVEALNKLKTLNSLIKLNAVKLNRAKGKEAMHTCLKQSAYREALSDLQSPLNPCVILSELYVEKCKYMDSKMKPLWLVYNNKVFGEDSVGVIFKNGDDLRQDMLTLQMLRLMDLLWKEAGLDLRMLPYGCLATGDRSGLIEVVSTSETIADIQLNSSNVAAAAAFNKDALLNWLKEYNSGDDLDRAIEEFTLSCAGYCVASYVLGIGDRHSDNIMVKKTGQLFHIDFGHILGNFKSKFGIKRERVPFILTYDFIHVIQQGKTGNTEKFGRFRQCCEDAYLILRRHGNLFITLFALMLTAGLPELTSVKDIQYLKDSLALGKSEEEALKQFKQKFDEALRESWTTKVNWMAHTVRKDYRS
How it was run: as §1

p110δ/p85α = p110δ/p85α (Homo sapiens (Human), UniProt O00329); assay: PI3K δ inhibition assay (TLC lipid kinase or HTRF); type: biochemical
Chain of p110δ/p85α (O00329 whole entry): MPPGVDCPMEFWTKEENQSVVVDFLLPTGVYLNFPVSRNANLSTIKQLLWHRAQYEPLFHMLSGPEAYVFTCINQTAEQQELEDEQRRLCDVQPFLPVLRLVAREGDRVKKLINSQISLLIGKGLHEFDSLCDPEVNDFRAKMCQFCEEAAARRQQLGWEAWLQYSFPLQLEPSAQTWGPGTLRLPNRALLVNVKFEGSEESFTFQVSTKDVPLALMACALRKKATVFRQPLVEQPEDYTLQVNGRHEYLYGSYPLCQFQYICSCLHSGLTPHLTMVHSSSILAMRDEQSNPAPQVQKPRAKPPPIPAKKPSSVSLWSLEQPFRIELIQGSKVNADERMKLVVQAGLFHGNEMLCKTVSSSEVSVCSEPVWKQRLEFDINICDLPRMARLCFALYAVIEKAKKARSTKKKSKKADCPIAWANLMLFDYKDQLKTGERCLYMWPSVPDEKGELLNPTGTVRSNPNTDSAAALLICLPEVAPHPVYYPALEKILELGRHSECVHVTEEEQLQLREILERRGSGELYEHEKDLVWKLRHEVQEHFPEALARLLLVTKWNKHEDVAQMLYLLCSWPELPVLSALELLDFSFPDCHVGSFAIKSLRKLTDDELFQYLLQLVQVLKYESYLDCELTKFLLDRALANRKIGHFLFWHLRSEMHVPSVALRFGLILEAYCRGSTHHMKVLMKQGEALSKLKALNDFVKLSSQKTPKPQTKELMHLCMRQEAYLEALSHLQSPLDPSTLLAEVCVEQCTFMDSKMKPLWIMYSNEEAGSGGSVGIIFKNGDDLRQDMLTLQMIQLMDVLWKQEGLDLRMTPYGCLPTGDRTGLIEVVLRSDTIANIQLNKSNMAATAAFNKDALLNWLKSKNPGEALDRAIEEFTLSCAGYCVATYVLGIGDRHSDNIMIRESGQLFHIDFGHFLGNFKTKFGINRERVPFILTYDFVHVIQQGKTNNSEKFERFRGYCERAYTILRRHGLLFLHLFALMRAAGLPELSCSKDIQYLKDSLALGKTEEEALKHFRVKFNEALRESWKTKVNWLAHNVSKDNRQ
Chain of p110δ/p85α (P27986 whole entry partner): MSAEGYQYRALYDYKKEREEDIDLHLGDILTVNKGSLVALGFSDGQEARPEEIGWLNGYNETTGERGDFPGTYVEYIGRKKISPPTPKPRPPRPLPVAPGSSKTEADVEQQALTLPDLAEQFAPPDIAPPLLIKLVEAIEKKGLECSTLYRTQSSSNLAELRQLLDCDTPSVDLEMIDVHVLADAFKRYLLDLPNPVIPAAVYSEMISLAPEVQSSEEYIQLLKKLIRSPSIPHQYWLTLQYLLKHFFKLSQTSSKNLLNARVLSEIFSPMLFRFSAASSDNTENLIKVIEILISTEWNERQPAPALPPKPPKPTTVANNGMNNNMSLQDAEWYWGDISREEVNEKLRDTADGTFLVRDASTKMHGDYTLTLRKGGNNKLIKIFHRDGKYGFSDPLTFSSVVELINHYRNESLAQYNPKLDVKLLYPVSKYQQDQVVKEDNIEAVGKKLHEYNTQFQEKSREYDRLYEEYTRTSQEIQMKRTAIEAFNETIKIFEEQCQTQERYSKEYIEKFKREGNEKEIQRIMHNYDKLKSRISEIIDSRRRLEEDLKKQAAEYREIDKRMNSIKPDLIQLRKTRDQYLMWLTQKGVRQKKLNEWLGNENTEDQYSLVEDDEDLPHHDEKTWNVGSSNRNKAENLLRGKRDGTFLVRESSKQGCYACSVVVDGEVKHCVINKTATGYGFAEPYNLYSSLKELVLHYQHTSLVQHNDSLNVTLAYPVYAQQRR
How it was run: as §1

p110α/p85α = p110α/p85α (Homo sapiens (Human), UniProt P42336); assay: PI3K α inhibition assay (TLC lipid kinase or HTRF); type: biochemical
Chain of p110α/p85α (P42336 whole entry): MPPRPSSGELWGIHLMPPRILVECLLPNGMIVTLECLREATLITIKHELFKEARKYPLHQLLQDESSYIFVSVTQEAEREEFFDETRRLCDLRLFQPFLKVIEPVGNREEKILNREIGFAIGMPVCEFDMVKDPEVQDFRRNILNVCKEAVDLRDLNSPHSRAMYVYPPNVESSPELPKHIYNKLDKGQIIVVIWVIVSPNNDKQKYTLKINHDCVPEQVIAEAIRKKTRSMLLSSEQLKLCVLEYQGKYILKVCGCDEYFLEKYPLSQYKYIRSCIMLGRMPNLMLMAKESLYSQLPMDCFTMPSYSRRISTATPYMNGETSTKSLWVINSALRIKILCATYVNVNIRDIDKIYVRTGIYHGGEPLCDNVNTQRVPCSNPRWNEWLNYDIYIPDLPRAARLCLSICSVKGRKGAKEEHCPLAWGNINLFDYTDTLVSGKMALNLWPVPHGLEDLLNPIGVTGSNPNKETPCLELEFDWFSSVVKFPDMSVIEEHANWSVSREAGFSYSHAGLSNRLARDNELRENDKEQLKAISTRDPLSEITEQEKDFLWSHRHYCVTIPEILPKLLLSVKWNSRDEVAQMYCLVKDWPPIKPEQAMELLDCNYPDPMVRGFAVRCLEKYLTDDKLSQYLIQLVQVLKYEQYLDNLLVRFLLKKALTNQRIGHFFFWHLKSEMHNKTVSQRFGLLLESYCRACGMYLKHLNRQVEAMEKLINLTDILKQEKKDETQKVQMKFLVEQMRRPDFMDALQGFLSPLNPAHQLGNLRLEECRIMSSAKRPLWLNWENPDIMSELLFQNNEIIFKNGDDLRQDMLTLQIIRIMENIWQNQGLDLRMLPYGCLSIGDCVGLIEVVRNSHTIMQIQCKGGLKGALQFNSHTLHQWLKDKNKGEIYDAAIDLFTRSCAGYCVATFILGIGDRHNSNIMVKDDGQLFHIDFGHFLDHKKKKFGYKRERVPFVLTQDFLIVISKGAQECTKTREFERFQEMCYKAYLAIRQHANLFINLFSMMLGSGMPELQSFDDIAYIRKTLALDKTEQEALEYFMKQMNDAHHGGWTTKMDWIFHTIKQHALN
Chain of p110α/p85α (P27986 whole entry partner): as the sequence (P27986 whole entry partner) above
How it was run: as §1

Chain of p110γ (P48736 whole entry): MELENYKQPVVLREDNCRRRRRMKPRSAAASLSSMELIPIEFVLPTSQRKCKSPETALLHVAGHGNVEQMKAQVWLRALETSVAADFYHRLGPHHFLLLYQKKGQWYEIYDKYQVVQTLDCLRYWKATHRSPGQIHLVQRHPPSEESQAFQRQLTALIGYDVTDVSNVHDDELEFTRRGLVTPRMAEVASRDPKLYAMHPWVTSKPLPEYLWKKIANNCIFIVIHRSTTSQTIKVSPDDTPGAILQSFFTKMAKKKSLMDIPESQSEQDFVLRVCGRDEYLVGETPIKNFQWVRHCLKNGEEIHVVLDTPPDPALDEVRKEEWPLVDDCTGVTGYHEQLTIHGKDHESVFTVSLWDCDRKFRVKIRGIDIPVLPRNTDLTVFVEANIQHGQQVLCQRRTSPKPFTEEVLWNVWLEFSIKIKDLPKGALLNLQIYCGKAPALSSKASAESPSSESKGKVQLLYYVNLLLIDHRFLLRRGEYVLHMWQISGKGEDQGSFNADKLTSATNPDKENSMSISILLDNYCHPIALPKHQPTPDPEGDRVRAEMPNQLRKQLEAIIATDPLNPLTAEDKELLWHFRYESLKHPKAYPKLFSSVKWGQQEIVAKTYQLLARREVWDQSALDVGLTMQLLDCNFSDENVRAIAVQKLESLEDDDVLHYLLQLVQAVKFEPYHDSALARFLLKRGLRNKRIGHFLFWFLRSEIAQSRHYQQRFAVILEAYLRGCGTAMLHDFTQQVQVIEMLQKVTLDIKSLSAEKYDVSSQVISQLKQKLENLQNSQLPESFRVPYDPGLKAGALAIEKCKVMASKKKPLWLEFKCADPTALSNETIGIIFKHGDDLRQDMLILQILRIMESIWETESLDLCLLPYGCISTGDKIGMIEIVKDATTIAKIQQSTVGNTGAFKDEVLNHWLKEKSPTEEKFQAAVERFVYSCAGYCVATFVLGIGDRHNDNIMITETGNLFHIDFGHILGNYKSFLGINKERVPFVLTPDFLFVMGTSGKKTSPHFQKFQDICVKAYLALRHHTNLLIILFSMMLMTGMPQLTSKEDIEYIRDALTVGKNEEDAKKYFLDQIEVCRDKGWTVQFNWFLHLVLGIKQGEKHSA

Structure (SMILES) | IC50 (p110γ) [nM] | EC50 (Balb/c splenic B cells) [nM] | IC50 (p110β/p85α) [nM] | IC50 (p110δ/p85α) [nM] | IC50 (p110α/p85α) [nM]
Nc1ncnc2c1c(-c1cc(O)cc(F)c1)nn2Cc1cc2ccccc2nc1NCCN1CCOCC1 [Compound 75] | > 1000 | < 100 | > 1000 | < 100 | > 1000
Cc1ccccc1-c1nc2ccccc2cc1Cn1nc(-c2ccc3ncnc(N)c3c2)c2c(N)ncnc21 [Compound 134] | < 100 | 100 to 1000 | > 1000 | < 100 | > 1000
Nc1ncnc2c1c(/C=C1/SC(=O)NC1=O)nn2Cc1cc2ccccc2nc1-c1ccccc1F [Compound 192] | < 100 | 100 to 1000 | > 1000 | < 100 | > 1000
CC(=O)Nc1nc2ccc(-c3nn(Cc4cc5ccccc5nc4-c4ccccc4F)c4ncnc(N)c34)cc2s1 [Compound 83] | < 100 | < 100 | > 1000 | < 100 | > 1000
CC(c1cc2ccccc2nc1-c1ccccc1)n1nc(C#C[C@@H](C)O)c2c(N)ncnc21 (stereo partly shown) [Compound 71] | > 1000 | 100 to 1000 | > 1000 | < 100 | > 1000
Nc1ncnc2c1c(-c1cnn(CCO)c1)nn2Cc1cc2ccccc2nc1-c1ccccc1 [Compound 179] | > 1000 | 100 to 1000 | > 1000 | 100 to 1000 | > 1000
CC(=O)Nc1nc2ccc(-c3nn(Cc4cc5ccccc5nc4N4CCN(C)CC4)c4ncnc(N)c34)cc2[nH]1 [Compound 185] | > 1000 | < 100 | 100 to 1000 | < 100 | > 1000
Nc1ccc2cc(-c3nn(Cc4cc5ccccc5nc4N4CCOCC4)c4ncnc(N)c34)ccc2n1 [Compound 140] | < 100 | < 100 | 100 to 1000 | < 100 | < 100
Cc1ccncc1-c1nc2ccccc2cc1Cn1nc(-c2cc(O)cc(F)c2)c2c(N)ncnc21 [Compound 56] | < 100 | < 100 | > 1000 | < 100 | > 1000
Nc1ncnc2c1c(-c1cc(O)cc(F)c1)nn2Cc1cc2ccccc2nc1-c1ccccc1 [Compound 57] | < 100 | < 100 | 100 to 1000 | < 100 | 100 to 1000
CC(=O)Nc1nc2ccc(-c3nn(Cc4cc5ccccc5nc4N4CCN(C)CC4)c4ncnc(N)c34)cc2s1 [Compound 70] | 100 to 1000 | < 100 | < 100 | < 100 | 100 to 1000
Cc1ccccc1-c1nc2ccccc2cc1Cn1nc(-c2ccc3cc(N)sc3c2)c2c(N)ncnc21 [Compound 86] | < 100 | 100 to 1000 | > 1000 | < 100 | > 1000
Nc1ncnc2c1c(-c1cc(O)cc(F)c1)nn2Cc1nc2ccccc2nc1N1CCCC1 [Compound 104] | 100 to 1000 | < 100 | > 1000 | < 100 | > 1000
Nc1nc2ccc(-c3nn(Cc4cc5ccccc5nc4-c4ccccc4C(F)(F)F)c4ncnc(N)c34)cc2[nH]1 [Compound 181] | < 100 | 100 to 1000 | > 1000 | < 100 | > 1000
Nc1ncnc2c1c(-c1cc(O)cc(F)c1)nn2Cc1cc2ccccc2nc1Cl [Compound 54] | 100 to 1000 | < 100 | > 1000 | < 100 | > 1000
Nc1ncnc2c1c(-c1cc(O)cc(F)c1)nn2Cc1cc2ccccc2nc1CCN1CCCC1 [Compound 165] | > 1000 | < 100 | 100 to 1000 | < 100 | > 1000
Nc1ncnc2c1c(-c1cccc(O)c1)nn2Cc1nc2ccccc2nc1N1CCCC1 [Compound 105] | 100 to 1000 | 100 to 1000 | > 1000 | < 100 | > 1000
